This note sets out measurements from patent publication US20220354974A1, “REAGENTS AND METHODS FOR LABELING MOLECULES WITH ASTATINE ISOTOPES IN HIGHER OXIDATION STATES” (priority 2021, published 2022).

The nature of this data set: Stability in solution of 211At-labeling products of biotin-sarcosine-bis-B10 by radio-HPLC. Type of data set: physicochemical. Here is the method:
FIGS. 22A-22D compare radio-HPLC chromatograms of reaction product from ^211At labeling of Compound 8 (see FIG. 21): 0.1 mg of Compound 8 was reacted with ^211At in 5% HOAc in MeOH/H2O without ChT at room temperature for 5 min (22A) and the reaction mixture sat at room temperature for about 1 h (22B); and 0.1 mg of Compound 8 was reacted with ^211At in 5% HOAc in MeOH/H2O with 10 μg of ChT at room temperature for 3 min. (22C) the reaction mixture after setting at room temperature for about 2 h (22D).
In an ^211At-labeling reaction with biotin-sarcosine-bis-B10, 8, a solution of [^211At]NaAt in 5% HOAc in MeOH/H2O was reacted at room temperature for 5 min without an oxidant. The reaction was quenched with 10 μL of 1 mg/mL Na2S2O5 (a reductant). The reaction provided one major ^211At labeled product (95%) as shown the radio-HPLC peak at about 10.1 min (FIG. 22A). […] In another ^211At-labeling reaction, the same reaction conditions as above were used except a chemical oxidant chloramine-T (ChT) was added to the reaction solution. The reaction with ChT provided multiple products that were eluted from 9-11 min. After sitting at room temperature for 2 h, a significant amount of free ^211At was observed (29%) (FIG. 22D).

Regarding “3,5-B10H9-dioxa-Ph-Sar-Biotin [Compound 8]”, the “free 211At observed” value (labeled with ChT, after sitting at room temperature for 2 h) is recorded as 29%. The “change in 211At-labeled product in solution” value (labeled without oxidant, quenched, 1 h at room temperature) was “No change”.
